We go through two molecules from patent publication US4835152A, “1-(4-Aminophenyl)-4-methyl-7,8-methylenedioxy-3,4-dihydro-5H-2,3-b enzodiazepine and acid addition salts thereof same” (Biogal Gyogyszergyar, priority 1986, dated 1989).

Assay [1] concerns haloperidol-induced decrease in SMA. Nature of the assay: Measurement of the haloperidol-antagonistic effect in mice (spontaneous motor activity, SMA). In kind it is in vivo, male CFLP mice. The note with it: haloperidol alone, 0.5 mg/kg i.p., relative to controls. As to the method:
2. Measurement of the haloperidol-antagonistic effect in mice
Male CFLP mice weighing 20 to 22 g were treated intraperitoneally with a dose of 0.5 mg/kg of 4-[4-(4-chlorophenyl)-4-hydroxy-1-piperidinyl]-1-(4-fluorophenyl)-1-butanone (haloperidol) and the spontaneous motor activity (SMA) was measured, in relation to the data obtained in the controls, by a capacitance-sensitive motimeter. Another group of the test animals was treated also with a dose of 30 mg/kg of the compound of Example 1, 15 minutes after the administration of haloperidol.

Assay [2] is described as follows: Examination of stereotypy in rats (method of Costall and Naylor). It is filed as in vivo. Also on record: Stereotypy, average score: scale not given here. From the text:
3. Examination of stereotypy in rats
For the measurement of stereotypy the method of B. Costall and R. I. Naylor [Eur. J. Pharmacol. 18, 95 (1972)] was used. The score values in Table 4 are average score values obtained at the time of reading.

On to `O=C(CCCN1CCC(O)(c2ccc(Cl)cc2)CC1)c1ccc(F)cc1` [Haloperidol, 4-[4-(4-chlorophenyl)-4-hydroxy-1-piperidinyl]-1-(4-fluorophenyl)-1-butanone, reference compound], for which the “Decrease in SMA” value in assay [1] was determined as 62.6%.
For `CC(C)C[C@H]1C(=O)N2CCC[C@H]2[C@]2(O)O[C@](NC(=O)[C@@H]3C=C4c5cccc6[nH]c(Br)c(c56)C[C@H]4N(C)C3)(C(C)C)C(=O)N12` [Bromocriptine, reference compound], the “Stereotypy, average score” value was 0.2 in assay [2] (5 mg/kg i.p., 30 min); 0.6 in assay [2] (5 mg/kg i.p., 60 min); 0.8 in assay [2] (5 mg/kg i.p., 120 min); 1.1 in assay [2] (5 mg/kg i.p., 180 min); 0.4 in assay [2] (5 mg/kg i.p., 240 min); 0.5 in assay [2] (10 mg/kg i.p., 30 min). Besides, the “Stereotypy, average score” value in assay [2] (10 mg/kg i.p., 60 min) is 1.0; in assay [2] (10 mg/kg i.p., 120 min), 1.8; in assay [2] (10 mg/kg i.p., 180 min), 1.9; in assay [2] (10 mg/kg i.p., 240 min) it was 1.5; in assay [2] (20 mg/kg i.p., 30 min), 0.6; in assay [2] (20 mg/kg i.p., 60 min), 1.2. For the same molecule, the “Stereotypy, average score” value in assay [2] (20 mg/kg i.p., 120 min) is 2.2; in assay [2] (20 mg/kg i.p., 180 min), 2.4; in assay [2] (20 mg/kg i.p., 240 min), 1.8. For the same molecule, the “Stereotypy (in words)” value in assay [2] (rats) is “causes stereotypy”.
